Values of other authors, collected in patent US7825159B2, “Mixtures of aromatic esters for marking or tagging organic products, marker compositions comprising the same and manufacturing methods thereof” (United Color Manufacturing, Inc., priority 2006, dated 2010).

Assays:
[1] = with less than 28 wt. % n-octylpyrolidinone co-solvent
[2] = with less than 28 wt. % n-octylpyrolidinone co-solvent, even with vigorous stirring

Precipitation on standing overnight in the freezer [1]: precipitates
Dispersion into diesel fuel [2]: will not disperse
Structure (SMILES): CCCC(=O)Oc1ccc(C2(c3ccc(OC(=O)CCC)c(C)c3)OC(=O)c3ccccc32)cc1C [Cresolphthalein dibutyrate]
